Reference: publication PMC6950571 (Marine Drugs, 2019)
Bridge positions count the residues as written; N and C are the ends. Peptide text beside a SMILES is read from it.

Molecular target: T1, rα3β2 nAChRs expressed in Xenopus laevis oocytes (Rattus norvegicus, UniProt P04757+P12390)
T1 construct: expressed in transfected cells; host or cells: Xenopus laevis oocytes, injected with α3 and β2 mRNA; clones from Dr. Steven Heinemann, Salk Institute
Assay: cell-based
Details: SEM

T1 sequence (P04757 26-499 limits assumed): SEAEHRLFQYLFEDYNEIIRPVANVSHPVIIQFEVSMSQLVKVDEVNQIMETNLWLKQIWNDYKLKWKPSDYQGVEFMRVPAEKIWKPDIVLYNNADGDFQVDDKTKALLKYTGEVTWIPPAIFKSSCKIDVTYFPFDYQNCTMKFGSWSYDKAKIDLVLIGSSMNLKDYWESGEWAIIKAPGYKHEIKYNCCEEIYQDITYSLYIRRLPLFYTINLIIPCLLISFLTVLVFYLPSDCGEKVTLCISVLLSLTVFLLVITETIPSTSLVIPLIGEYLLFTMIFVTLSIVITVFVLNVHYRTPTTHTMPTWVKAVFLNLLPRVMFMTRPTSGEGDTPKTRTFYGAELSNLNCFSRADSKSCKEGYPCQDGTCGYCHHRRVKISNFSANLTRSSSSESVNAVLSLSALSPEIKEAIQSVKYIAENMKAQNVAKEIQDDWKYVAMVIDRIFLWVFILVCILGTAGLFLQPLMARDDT
T1 sequence (P12390 25-500 limits assumed): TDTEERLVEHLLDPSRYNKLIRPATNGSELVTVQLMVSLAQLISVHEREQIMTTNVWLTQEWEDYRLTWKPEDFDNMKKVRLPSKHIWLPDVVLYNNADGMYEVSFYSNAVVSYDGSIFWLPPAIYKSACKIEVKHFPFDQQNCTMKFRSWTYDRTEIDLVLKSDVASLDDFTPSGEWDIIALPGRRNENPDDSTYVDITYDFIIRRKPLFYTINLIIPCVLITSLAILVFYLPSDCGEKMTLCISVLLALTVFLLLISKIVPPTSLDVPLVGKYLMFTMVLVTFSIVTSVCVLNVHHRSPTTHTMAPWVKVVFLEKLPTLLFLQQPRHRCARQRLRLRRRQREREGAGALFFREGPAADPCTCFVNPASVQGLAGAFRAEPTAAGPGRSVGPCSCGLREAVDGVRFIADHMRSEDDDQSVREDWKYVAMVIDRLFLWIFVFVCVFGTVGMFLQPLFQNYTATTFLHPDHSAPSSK

NCCCC[C@@H]1NC(=O)[C@H](CO)NC(=O)[C@H](CO)NC(=O)[C@H](CO)NC(=O)[C@H](Cc2c[nH]c3ccccc23)NC(=O)[C@H](Cc2ccc(O)cc2)NC(=O)[C@@H]2CSSC[C@H](NC(=O)[C@@H](NC(=O)[C@@H](N)Cc3c[nH]c4ccccc34)CSSC[C@@H](C(=O)O)NC(=O)[C@H](Cc3c[nH]c4ccccc34)NC1=O)C(=O)N[C@@H](CO)C(=O)N[C@@H](Cc1ccc(O)cc1)C(=O)N1CCC[C@H]1C(=O)NCC(=O)N2 [KTM] (H-WCCSYPGCYWSSSKWC-OH; disulfide 2-16, 3-8) gave an IC50 of 0.19 ± 0.02 nM.
